Assay results as given in patent US11532406B2, “High specific activity preparation of F-18 tetrafluoroborate” (Mayo Foundation for Medical Education and Research, priority 2016, dated 2022).

Test: Estimated plasma / in vivo concentration of TFB after ~400 MBq ^18F-TFB
Set-up: species or system human
Details: specific activity of 8 GBq/μmol, ~400 MBq administered dose

Structure (SMILES): F[B-](F)(F)[18F] [^18F-TFB, ^18F-tetrafluoroborate]
- estimated in vivo concentration of TFB: ~0.02 µM
